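Dose response: 5 concentrations. Exposure: 48 h. Format: 96-well plates. Endpoint: linear interpolation; highest concentration if not reached. The concentration for 50% growth inhibition is given as GI50. TGI marks complete inhibition of growth.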

This passage reports GI50 and TGI results from PubChem BioAssay (NCI).

Some test systems named below: SK-OV-3 ovarian; UACC-257 melanoma; ACHN renal; LOX IMVI melanoma; OVCAR-5 ovarian; M14 melanoma; OVCAR-3 ovarian; 786-0 renal; NCI-H460 lung; SF-539 CNS.
Test in all cases: NCI tumour cell line growth inhibition, 48 h

With `CC(=O)c1c(C(F)(F)F)n([O-])c2ccc(Cl)cc2[n+]1=O`, the GI50 in the experiment with SK-OV-3 ovarian is 6.65 µM; in the experiment with UACC-257 melanoma, 4 µM; in the experiment with ACHN renal, 0.69 µM; in the experiment with LOX IMVI melanoma it was 0.652 µM; in the experiment with OVCAR-5 ovarian, 2.74 µM; with M14 melanoma, 1.78 µM. In addition, the GI50 in the experiment with OVCAR-3 ovarian was 2.64 µM; in the experiment on 786-0 renal it was 0.0551 µM; in the experiment with NCI-H460 lung it was 0.0191 µM; in the experiment with SF-539 CNS it was 0.161 µM. For the same compound, the TGI in the experiment with SK-OV-3 ovarian turned out to be 19.9 µM; in the experiment with UACC-257 melanoma, 20.8 µM; with ACHN renal, 4.96 µM; with LOX IMVI melanoma, 3.92 µM; with OVCAR-5 ovarian, 18.6 µM; in the experiment with M14 melanoma, 5.05 µM. Also, the TGI in the experiment with OVCAR-3 ovarian amounted to 8.13 µM; in the experiment with 786-0 renal, 0.382 µM; in the experiment with NCI-H460 lung it was 0.286 µM; in the experiment with SF-539 CNS, 0.526 µM.
With `Cc1cc2c(=O)n(-c3ccc(F)cc3)c(C)nc2c(C(=O)O)c1C`, the TGI in the experiment on SK-OV-3 ovarian, with UACC-257 melanoma, in the experiment with ACHN renal, in the experiment on LOX IMVI melanoma, with OVCAR-5 ovarian and in the experiment with M14 melanoma was more than 100 µM throughout. The TGI in the experiment with OVCAR-3 ovarian, in the experiment on 786-0 renal, in the experiment with NCI-H460 lung and with SF-539 CNS was more than 100 µM each time.
For `CC(=O)Nc1ccc(Sc2ccc([N+](=O)[O-])o2)cc1`, the GI50 is 8.37 µM in the experiment with SK-OV-3 ovarian; 1.61 µM with UACC-257 melanoma; 1.62 µM with ACHN renal; 1.45 µM with LOX IMVI melanoma; 2.34 µM in the experiment with OVCAR-5 ovarian; 2.08 µM in the experiment with M14 melanoma. Moreover, the GI50 in the experiment on OVCAR-3 ovarian was 0.664 µM; in the experiment on 786-0 renal it was 2.69 µM; in the experiment with NCI-H460 lung it was 2.83 µM; in the experiment with SF-539 CNS, 3.13 µM. Besides, the TGI was 20.6 µM in the experiment with SK-OV-3 ovarian; 3.52 µM in the experiment on UACC-257 melanoma; 4.29 µM in the experiment with ACHN renal; 3.05 µM with LOX IMVI melanoma; 5.9 µM in the experiment with OVCAR-5 ovarian; 4.09 µM with M14 melanoma. Besides, the TGI came to 1.95 µM in the experiment with OVCAR-3 ovarian, 7.55 µM with 786-0 renal, 8.93 µM with NCI-H460 lung and 11 µM in the experiment on SF-539 CNS.
As for `NC(CSC(c1ccccc1)(c1ccccc1)c1ccc(Cl)cc1)C(=O)O` (stereo not given), the GI50 in the experiment with SK-OV-3 ovarian is 0.158 µM; with UACC-257 melanoma it was 3.87 µM; in the experiment on ACHN renal, 2.6 µM; with LOX IMVI melanoma it was 0.682 µM; with OVCAR-5 ovarian it was 0.774 µM; in the experiment with M14 melanoma it was 0.0322 µM. Further, the GI50 in the experiment with OVCAR-3 ovarian was 0.255 µM; in the experiment on 786-0 renal it was 1.36 µM; in the experiment with NCI-H460 lung it was 0.342 µM; in the experiment with SF-539 CNS it was 0.148 µM. In addition, the TGI in the experiment with SK-OV-3 ovarian was 21.7 µM; in the experiment on UACC-257 melanoma, more than 78.7 µM; with ACHN renal, more than 78.4 µM; in the experiment on LOX IMVI melanoma, 36.3 µM; with OVCAR-5 ovarian, more than 63.9 µM; in the experiment with M14 melanoma, 0.132 µM. Besides, the TGI worked out at 3.37 µM in the experiment on OVCAR-3 ovarian, 30 µM in the experiment on 786-0 renal, 12.9 µM with NCI-H460 lung and 2.87 µM in the experiment on SF-539 CNS.
With `CC(=O)O/N=C/c1ncccc1OC(C)=O`, the TGI in the experiment on SK-OV-3 ovarian, with UACC-257 melanoma, in the experiment on ACHN renal, in the experiment on LOX IMVI melanoma, with OVCAR-5 ovarian and with M14 melanoma was more than 100 µM in each case. Also, the TGI with OVCAR-3 ovarian, with 786-0 renal, in the experiment with NCI-H460 lung and with SF-539 CNS was more than 100 µM in each case.
Regarding `COc1ccccc1-n1c(-c2cc(O)ccc2C)cn2c3c(=O)[nH]c(=O)n(C)c3nc12`, the GI50 in the experiment on SK-OV-3 ovarian was 2.78 µM; in the experiment with UACC-257 melanoma it was more than 100 µM; in the experiment on ACHN renal, 1.99 µM; with LOX IMVI melanoma, 2.28 µM; with OVCAR-5 ovarian it was 28.1 µM; with M14 melanoma it was 90.8 µM. In addition, the GI50 in the experiment on OVCAR-3 ovarian was 4.28 µM; with 786-0 renal, 6.24 µM; with NCI-H460 lung it was more than 100 µM; with SF-539 CNS, 8.86 µM. For the same compound, the TGI was more than 100 µM in the experiment on SK-OV-3 ovarian; more than 100 µM in the experiment with UACC-257 melanoma; 63.5 µM in the experiment on ACHN renal; 16 µM with LOX IMVI melanoma; more than 100 µM in the experiment on OVCAR-5 ovarian; more than 100 µM in the experiment with M14 melanoma. Besides, the TGI with OVCAR-3 ovarian, in the experiment with 786-0 renal, with NCI-H460 lung and with SF-539 CNS was more than 100 µM throughout.
